From US10189772B2, “Mixtures of chelating agents including an L-enantiomer-rich MGDA, and process for making such mixtures” (BASF SE, priority 2015, dated 2019)
Structures can show the parent of a compound that is named as a salt. Where two headings read alike, the source gives them in different places.

Assays:
[1] = ambient temperature, no visible precipitation after 2 weeks
Procedure: In each case, the solubility was calculated to refer to pure MGDA, without hydrate water.
In addition, the concentrations of the saturated solutions at ambient temperature in dependence of the ee value of MGDA and depending on the concentration of (B) were determined.

[2] = aqueous solution, room temperature; cited from earlier work

SMILES | concentration of saturated solutions ([1]; ee value of MGDA-Na3 11 %, addition of VDA-Na3 5.5 weight-%) [weight-%] | concentration of saturated solutions ([1]; ee value of MGDA-Na3 39 %, addition of VDA-Na3 2.8 weight-%) [weight-%] | concentration of saturated solutions ([1]; ee value of MGDA-Na3 39 %, addition of VDA-Na3 5.5 weight-%) [weight-%] | concentration of saturated solutions ([1]; ee value of MGDA-Na3 39 %, addition of VDA-Na3 8.3 weight-%) [weight-%] | concentration of saturated solutions ([1]; ee value of MGDA-Na3 82 %, addition of VDA-Na3 2.8 weight-%) [weight-%] | concentration of saturated solutions ([1]; ee value of MGDA-Na3 82 %, addition of VDA-Na3 8.3 weight-%) [weight-%] | concentration of saturated solutions ([1]; ee value of MGDA-Na3 82 %, addition of VDA-Na3 zero weight-%) [weight-%] | concentration of saturated solutions ([1]; ee value of MGDA-Na3 96 %, addition of VDA-Na3 5.5 weight-%) [weight-%] | concentration of saturated solutions ([1]; ee value of MGDA-Na3 96 %, addition of VDA-Na3 zero weight-%) [weight-%] | concentration of saturated solutions ([1]; ee value of MGDA-Na3 zero %, addition of VDA-Na3 zero weight-%) [weight-%] | concentration of solutions that can be made and stored [2]
CC(C(=O)O)N(CC(=O)O)CC(=O)O (centres unmarked) [MGDA-Na3, methyl glycine diacetic acid] | 49 | 48 | 47 | 43 | 58 | 53 | 46 | 57 | 49 | ≤40 | –
CC(C(=O)O)N(CC(=O)O)CC(=O)O (racemic) [racemic MGDA trisodium salt, methyl glycine diacetic acid] | – | – | – | – | – | – | – | – | – | – | about 40 % by weight
